Data set [1] is described as follows: Blood levels and metabolic ratios of tamoxifen and its metabolites after two tamoxifen injections, with saline or morphine (LC-MS/MS). The following applies: for Change of blood concentration, second vs first tamoxifen injection: saline co-injections. As to the method: Experiments were performed with 11- to 29-week-old female C57BL/6J mice (23 ± 4 g; Charles River, L'Arbresle, France). Animals were housed according to a 12-h light–dark cycle, at a temperature of 22°C ± 2°C and provided with food and water ad libitum. All procedures were performed in accordance with European directives (2010/63/EU) and were approved by the regional ethics committee and the French Ministry of Agriculture (license no. APAFIS#16827-2018092113192911 v4 to YG).
Statistical analysis was performed using GraphPad Prism 6 Software. […] Groups were compared using multiple t-tests.

Data set [2] can be described thus: 4OH-tamoxifen glucuronidation assay in liver microsomes, with or without morphine. The following applies: male, C57/BL6J, mouse. The data set is classed as in vitro ADME.
The conditions of data set [3]: read-out: Km for morphine glucuronidation; mice; cited from earlier work.
The conditions of data set [4]: mice; cited from earlier work.
For data set [5] the following is noted: humans; cited from earlier work.
Setting [6] is: tamoxifen 10 mg/kg i.p. at 0 and 48 h.
The mark [7] stands for this setting: three i.p. injections of morphine 10 mg/kg at 0, 1 and 2 h.

Read-outs that look alike come from different tables or passages of the source.

On to `CC/C(=C(\c1ccc(OCCN(C)C)cc1)c1ccc(O[C@H]2O[C@@H](C(=O)O)[C@H](O)[C@@H](O)[C@@H]2O)cc1)c1ccccc1` [4OH-tamoxifen-glucuronide], for which the “Change of blood concentration, second vs first tamoxifen injection” value (“Change of blood concentration, second” below) in data set [1] (setting [6]) is on record as “significant increase”.
As for `CC/C(=C(\c1ccc(O)cc1)c1ccc(OCCN(C)C)cc1)c1ccccc1` [4OH-tamoxifen], the Michaelis constant (Km) at 20 s in data set [2] turned out to be 68 µM.
On to `CN1CC[C@]23c4c5ccc(O[C@@H]6O[C@H](C(=O)O)[C@@H](O)[C@H](O)[C@H]6O)c4O[C@H]2[C@@H](O)C=C[C@H]3[C@H]1C5` [M3G, morphine-3-glucuronide], for which the “Time at which the highest blood concentration was reached” value under setting [7] worked out at 2 h. The “Highest concentration in the blood” value (three i.p. injections of morphine 10 mg/kg at 0, 1 and 2 h, mean ± SEM) was 9,773 ± 1,274 pmol/ml.
Take `CC/C(=C(\c1ccccc1)c1ccc(OCCNC)cc1)c1ccccc1` [N-desmethyltamoxifen]: the “Change of blood concentration, second” value in data set [1] (setting [6]) is “significant increase”. For the same molecule, the “Change of blood concentration after tamoxifen + morphine vs first injection of tamoxifen alone” value in data set [1] (tamoxifen 10 mg/kg i.p. at 0 and 48 h, morphine 10 mg/kg i.p. at 48, 49 and 50 h) was “Only a tendency”. Besides, the “N-desmethyltamoxifen/tamoxifen ratio after morphine” value in data set [1] (tamoxifen + morphine 3 x 10 mg/kg i.p.) is on record as “not altered”. In addition, the “N-desmethyltamoxifen/tamoxifen ratio, second vs first tamoxifen injection” value in data set [1] (tamoxifen twice, saline) is “no difference”.
With `CC/C(=C(/c1ccc(OCCNC)cc1)c1ccc(O[C@@H]2O[C@H](C(=O)O)[C@@H](O)[C@H](O)[C@H]2O)cc1)c1ccccc1` [endoxifen-glucuronide], the “Change of blood concentration, second” value in data set [1] (setting [6]) is “did not vary significantly”. In addition, the “Increase of endoxifen-glucuronide/endoxifen ratio, second vs first tamoxifen injection” value in data set [1] (tamoxifen 10 mg/kg i.p. twice, saline, t = 2 h) turned out to be 3 fold.
`CN1CC[C@]23c4c5ccc(O)c4O[C@H]2[C@@H](O)C=C[C@H]3[C@H]1C5` [morphine, reference compound]: the “Presence in blood after 8 h” value (three i.p. injections of morphine 10 mg/kg) is “still present”. Further, under setting [7], the “Time at which the highest blood concentration was reached” value worked out at 2 h. Also, the Km in data set [3] was 500 µM.
Regarding `CC/C(=C(\c1ccccc1)c1ccc(OCCN(C)C)cc1)c1ccccc1` [tamoxifen], the Half-life in data set [4] was 6.8 h; in data set [5], 27 h.

(Values after PMC7046683 (Frontiers in Oncology, 2020).)
